# How the values were obtained:
# [1] = Formation of the compound in a brimonidine tartrate / timolol maleate composition stored at ambient temperature (age of composition); type: physicochemical; conditions: for Compound Concentration (% weight/vol): composition initially 0.2% brimonidine tartrate and 0.68% timolol maleate, pH 6.9, ambient temperature
# Procedure: The compound disclosed herein can also be used to estimate the age of a composition, stored at ambient temperature, initially comprising brimonidine tartrate and timolol maleate of known amounts and having a pH of 6.9. The age of the […] (λ) in months is determined by equation 3, where B^o, T^o, and C^o are the initial concentrations of brimonidine, timolol maleate, and the compound respectively, in % (w/v). λ=C^o/(1.1×10^−3(B^oT^o)) [eq. 3] Equation 3 is an approximation which assumes that B^o and T^o>>C^o. If that is not the case, the age is determined using the rate constant k=1.1×10^−3 month^−1%^−1 and the appropriate rate expression.
# If the composition initially comprises 0.2% brimonidine tartrate and 0.68% timolol maleate. The age of the composition may be determined according to Table 2 below. Alternatively, up to about 36 months, the age is determined by multiplying the concentration of the compound in % (w/v) by 9100.
# microbial attack [2] = conditions: cited from earlier work
# microbial attack [3] = assay: Preservation of ophthalmic compositions from microbial attack; conditions: brimonidine/timolol compositions of the invention
# Source text: Ophthalmic products are typically packaged in multidose form. Preservatives are thus required to prevent microbial contamination during use. Suitable preservatives include: benzalkonium chloride, thimerosal, chlorobutanol, methyl paraben, propyl paraben, phenylethyl alcohol, edetate disodium, sorbic acid, Onamer M, or other agents known to those skilled in the art. In the prior art ophthalmic products, typically such preservatives are employed at a level of from 0.004% to 0.02%. In the compositions of the present application the preservative, preferably benzalkonium chloride, may be employed at a level of from 0.001% to less than 0.01%, e.g. from 0.001% to 0.008%, preferably about 0.005% by weight. […] This concentration may be advantageously compared to the requirement of 0.01% benzalkonium chloride to preserve timolol in the individual, commercially-available ophthalmic products.
molecule,measurement,setting,value
"O=C(O)C1CC(=O)N2CCN=C2N1c1ccc2nccnc2c1Br (stereo not drawn) [Compound, 8-(5-bromoquinoxalin-6-yl)-5-oxo-2,3,5,6,7,8-hexahydroimidazo[1,2-a]pyrimidine-7-carboxylic acid]",Compound Concentration (% weight/vol),[1]; Age 1 month,0.0001 % weight/vol
same,Compound Concentration (% weight/vol),[1]; Age 2 months,0.0002 % weight/vol
same,Compound Concentration (% weight/vol),[1]; Age 3 months,0.0003 % weight/vol
same,Compound Concentration (% weight/vol),[1]; Age 4 months,0.0004 % weight/vol
same,Compound Concentration (% weight/vol),[1]; Age 5 months,0.0006 % weight/vol
same,Compound Concentration (% weight/vol),[1]; Age 6 months,0.0007 % weight/vol
same,Compound Concentration (% weight/vol),[1]; Age 7 months,0.0008 % weight/vol
same,Compound Concentration (% weight/vol),[1]; Age 8 months,0.0009 % weight/vol
same,Compound Concentration (% weight/vol),[1]; Age 9 months,0.001 % weight/vol
same,Compound Concentration (% weight/vol),[1]; Age 10 months,0.0011 % weight/vol
same,Compound Concentration (% weight/vol),[1]; Age 11 months,0.0012 % weight/vol
same,Compound Concentration (% weight/vol),[1]; Age 12 months,0.0013 % weight/vol
same,Compound Concentration (% weight/vol),[1]; Age 13 months,0.0014 % weight/vol
same,Compound Concentration (% weight/vol),[1]; Age 14 months,0.0016 % weight/vol
same,Compound Concentration (% weight/vol),[1]; Age 15 months,0.0017 % weight/vol
same,Compound Concentration (% weight/vol),[1]; Age 16 months,0.0018 % weight/vol
same,Compound Concentration (% weight/vol),[1]; Age 17 months,0.0019 % weight/vol
same,Compound Concentration (% weight/vol),[1]; Age 18 months,0.0020 % weight/vol
same,Compound Concentration (% weight/vol),[1]; Age 19 months,0.0021 % weight/vol
same,Compound Concentration (% weight/vol),[1]; Age 20 months,0.0022 % weight/vol
same,Compound Concentration (% weight/vol),[1]; Age 21 months,0.0023 % weight/vol
same,Compound Concentration (% weight/vol),[1]; Age 22 months,0.0024 % weight/vol
same,Compound Concentration (% weight/vol),[1]; Age 23 months,0.0026 % weight/vol
same,Compound Concentration (% weight/vol),[1]; Age 24 months,0.0027 % weight/vol
same,rate constant k (formation of the compound from brimonidine tartrate and timolol maleate),"[1]; composition stored at ambient temperature, pH 6.9",1.1×10^−3 month^−1%^−1
benzalkonium chloride,"concentration required to preserve timolol in the individual, commercially-available ophthalmic products",microbial attack [2],0.01%
same,concentration sufficient to preserve the compositions of the present invention from microbial attack,microbial attack [3],0.005%
